Values quoted from earlier work in patent US20240000814A1, “TREATING ALCOHOL USE DISORDER USING PSILOCYBIN” (New York University, priority 2022, published 2024).

System: alcohol-dependent participants
Details: meta-analysis, 95% confidence interval 1.36-2.84; cited from earlier work

CCN(CC)C(=O)[C@@H]1C=C2c3cccc4[nH]cc(c34)C[C@H]2N(C)C1 [lysergic acid diethylamide (LSD), lysergic acid diethylamide]
Odds ratio of remission during follow-up vs comparator conditions: 1.96
